Target: Geranylgeranyl transferase type I (Homo sapiens, UniProt P49354+P53609)
Assay: Inhibition of recombinant mammalian Geranylgeranyl transferase type I expressed in baculovirus

Compound | IC50 [nM]
CC(C)=CCC/C(C)=C/CC/C(C)=C\CC/C(C)=C/COP(=O)(O)OP(=O)(O)O | 340
CC(C)=CCC/C(C)=C/CC/C(C)=C/CC/C(C)=C\COP(=O)(O)OP(=O)(O)O | 100
